Test results: US9855283B2, “Composition comprising GPCR19 agonist as an active ingredient for preventing or treating allergic dermatitis” (SHAPERON Inc., priority 2013, dated 2018)

Tests used:
[1] = test system: atopic dermatitis lesions on shaved-back of Balb/C mice; experiment: Clinical score of DNCB-induced atopic dermatitis lesions (five items, worst score 15); type: in vivo; settings: day 15
Protocol: (§1) In order to test efficacy of the sodium taurodeoxycholate (HY2191) composition on atopic dermatitis, dermatitis lesion was induced at the shaved-back of 6 weeks old male Balb/C mice. DNCB (2,4-dinitro-1-chlorobenzene, Sigma) was used as a hapten.
Five mice for each group were tested. The amount of IgE in blood of mice was measured to evaluate an inhibitory effect of a medication on IgE production. To make skin lesion of atopic dermatitis, 100 μL of a DNCB solution (2.5% in acetone) was applied on the shaved-back of the mouse at day 1. One hundred μL of DNCB (1% in acetone) was applied at day 4 and 100 μL of 0.2% DNCB in acetone at day 10. […]
In order to evaluate the efficacy of sodium taurodeoxycholate on atopic dermatitis, atopic dermatitis was induced on shaved-back of Balb/C mice with DNCB according to experimental example 1 and clinical scores of atopic dermatitis lesions incurred on the back of animal model was evaluated on day 15. To evaluate clinical scores at day 15, (1) the frequency of scratching for 2 minutes, (2) the severity of erythema/hemorrhage, (3) edema, (4) excoriation/erosion, and (5) scaling/dryness were graded and were scored from 0 (none) to 3 (severe), making the worst score 15 for the most severe subject. The every subject in every group was evaluated by three people in a double-blind method. The mean clinical score of individual mouse was calculated.

serum IgE = experiment: Serum IgE level by ELISA in DNCB-induced atopic dermatitis mice; type: in vivo, Balb/C mice; settings: FIG. 3
Protocol: as §1
(§2) Five mice for each group were tested. The amount of IgE in blood of mice was measured to evaluate an inhibitory effect of a medication on IgE production. To make skin lesion of atopic dermatitis, 100 μL of a DNCB solution (2.5% in acetone) was applied on the shaved-back of the mouse at day 1. One hundred μL of DNCB (1% in acetone) was applied at day 4 and 100 μL of 0.2% DNCB in acetone at day 10.
(§3) From the day 7 to the day 14, 100 μL of the composition of 2.5% or 5% sodium taurodeoxycholate (HY2191) of example 1 was applied on the back of mice twice a day. Maxidex ointment (Dexamethasone, Alcon Korea) and Protopic ointment (Tacrolimus, Astellas Pharma Korea) were used for positive control groups and only a vehicle was used for a negative control group.
After the clinical evaluation described at Experimental Example 2, a mixture containing 0.4% of Zoletil (Virbac, Milano Italy) and 0.04% of Rompun (Bayer Korea) in normal saline was injected i.p. to anesthetize each mouse. Blood samples were collected from the heart of the mice. The serum was prepared to measure the concentration of IgE using enzyme immunoassay (Mouse IgE ELISA, BD). […]

IFN-γ = experiment: Serum TH1 cytokine IFN-γ by ELISA in DNCB-induced atopic dermatitis mice; type: in vivo, Balb/C mice; settings: 5% composition; far better than mice treated with Protopic or Maxidex (p<0.05)
IL-2 = experiment: Serum TH1 cytokine IL-2 by ELISA in DNCB-induced atopic dermatitis mice; type: in vivo, Balb/C mice; settings: 5% composition; far better than mice treated with Protopic or Maxidex (p<0.05)
IL-4 = experiment: Serum TH2 cytokine IL-4 by ELISA in DNCB-induced atopic dermatitis mice; type: in vivo, Balb/C mice; settings: 5% composition; better than mice treated with Protopic or Maxidex (p<0.05)
[2] = test system: dorsal skin of atopic mice; experiment: Histopathology (H&E) of dorsal skin: thickness of epidermis and dermis; type: in vivo, Balb/C mice; settings: for thickness of the epidermis: DNCB only 320.2±21.6 μm, sham 26.1±1.0 μm; for thickness of dermis: DNCB only 930.2±34.2 μm, sham 384.7±11.4 μm
Protocol: In order to test efficacy of the sodium taurodeoxycholate (HY2191) composition on atopic dermatitis, dermatitis lesion was induced at the shaved-back of 6 weeks old male Balb/C mice. DNCB (2,4-dinitro-1-chlorobenzene, Sigma) was used as a hapten. Five mice for each group were tested. The amount of IgE in blood of mice was measured to evaluate an inhibitory effect of a medication on IgE production. To make skin lesion of atopic dermatitis, 100 μL of a DNCB solution (2.5% in acetone) was applied on the shaved-back of the mouse at day 1. One hundred μL of DNCB (1% in acetone) was applied at day 4 and 100 μL of 0.2% DNCB in acetone at day 10. From the day 7 to the day 14, 100 μL of the composition of 2.5% or 5% sodium taurodeoxycholate (HY2191) of example 1 was applied on the back of mice twice a day. Maxidex ointment (Dexamethasone, Alcon Korea) and Protopic ointment (Tacrolimus, Astellas Pharma Korea) were used for positive control groups and only a vehicle was used for a negative control group. The dorsal skin flaps of the mice were fixed in a 10% formalin solution for 24 hours and then washed with distilled water. The paraffin blocks of the fixed skins were prepared and sectioned (thickness of 7 μm). They were stained with hematoxylin and eosin (H&E) (FIG. 5A). The thickness of epidermis and the dermis of mice treated with DNCB only were 320.2±21.6 μm and 930.2±34.2 μm, respectively. […] The thickness of dermis from the group of atopic mice treated with 2.5% sodium taurodeoxycholate (HY2191), 5% sodium taurodeoxycholate (HY2191), or Protopic were 616.0±21.1 μm, 521.7±18.3 μm, and 572.6±20.2 μm, respectively.

mast cells = experiment: Mast cells infiltrated into the dermis (toluidine blue); type: in vivo, Balb/C mice; settings: compared with vehicle-treated group (p<0.05)
Protocol: as §1, §2, §3
(§4) The number of mast cells, eosinophils, and neutrophils infiltrated into the dermis were counted after staining skins with toluidine blue, congo red, or specific esterase (Naphthol AS-D chloroacetate), respectively. […] On the other hand, the number of neutrophils critical for acute inflammation was increased in the group of atopic mice treated with Protopic.

eosinophils = experiment: Eosinophils infiltrated into the dermis (congo red); type: in vivo, Balb/C mice; settings: compared with vehicle-treated group (p<0.05)
Protocol: as §1, §2, §3, §4

neutrophils = experiment: Neutrophils infiltrated into the dermis (specific esterase, Naphthol AS-D chloroacetate); type: in vivo, Balb/C mice; settings: compared with vehicle-treated group
Protocol: as §1, §2, §3, §4

C[C@H](CCC(=O)NCCS(=O)(=O)O)[C@H]1CC[C@H]2[C@@H]3CC[C@@H]4C[C@H](O)CC[C@]4(C)[C@H]3C[C@H](O)[C@]12C [sodium taurodeoxycholate (HY2191), sodium taurodeoxycholate]
clinical scores ([1]; 5% composition, compared to positive control group that received Maxidex ointment or Protopic ointment): better clinical scores
clinical score ([1]; compared to negative control group treated with vehicle only, topical twice a day, day 7 to 14): better clinical score
inhibiting serum IgE production (serum IgE; 2.5% or 5% composition): effective in inhibiting serum IgE production
serum IgE levels (serum IgE; compared with positive control groups (Maxidex ointment or Protopic ointment)): significantly lower
level of IFN-γ (TH1 cytokine) in serum (IFN-γ): increased significantly
level of IL-2 (TH1 cytokine) in serum (IL-2): increased significantly
level of IL-4 (TH2 cytokine) in serum (IL-4): decreased significantly
thickness of the epidermis ([2]; 2.5% composition): 105.3±7.0 μm
thickness of dermis ([2]; 2.5% composition): 616.0±21.1 μm
thickness of the epidermis ([2]; 5% composition): 75.0±8.4 μm
thickness of dermis ([2]; 5% composition): 521.7±18.3 μm
number of mast cells in the skin of atopic mice (mast cells): significantly decreased
number of eosinophils in the skin of atopic mice (eosinophils): significantly decreased
number of neutrophils in the skin of atopic mice (neutrophils): significantly decreased
